In brackets after ≈: the same amount, converted by molar mass.
Details: buffer; pH 7.4; 200.0 µM

Row | SMILES | solubility kinetic [µg/mL]
1 | CCOc1ccc(NC(=O)CNC(=O)c2cccs2)cc1 | 7.8 (≈ 25.6 µM)
2 | CSC1=NCCN1C(=O)c1ccc(C)cc1 | > 35.1
3 | Cc1cc(=O)oc(C)c1C(=O)Nc1ccc(N(C)C)cc1 | > 42.9
4 | O=c1c2[nH]c3ccccc3c2nc2n1CCS2 | 4.5 (≈ 18.5 µM)
5 | CC(=O)N1CC(=O)Nc2ccc(F)cc2C1c1ccccc1 (stereo not drawn) | > 44.7
6 | Clc1nn2cnnc2c2ccccc12 | > 30.7
7 | CN(C)c1ccc(C=C2C(=O)NC(=O)NC2=O)cc1[N+](=O)[O-] | > 45.6
8 | Cc1ccsc1C(=O)OCC(=O)N(Cc1ccccc1)C(C)C | 40.2 (≈ 121 µM)
9 | CC(=O)Nc1ccc(OC(=O)Cc2ccc(Cl)cc2)cc1 | 1.4 (≈ 4.61 µM)
10 | Cc1cc(C)n(C)c(=O)c1C#N | > 24.3
11 | COc1ccccc1N1C(=O)S/C(=C\c2ccc(C)s2)C1=O | < 0.7
12 | CC1CN(C(=O)c2ccc(Oc3ccccc3)cc2)CC(C)O1 (stereo not drawn) | > 46.7
13 | CCOc1ccc(NC(=O)NCc2cccn2C)cc1 | 9.2 (≈ 33.7 µM)
14 | Cc1ccc(S(=O)(=O)NCCC(=O)Nc2cccc(S(=O)(=O)N3CCCC3)c2)cc1C | 30.5 (≈ 65.5 µM)
15 | COC(=O)C1=C(C)NC(=O)NC1c1ccco1 (stereo not drawn) | 27.8 (≈ 118 µM)
16 | CC(C)C(NC(=O)c1ccc(F)cc1)C(=O)N1CCC1 (stereo not drawn) | > 41.7
17 | Cc1ccccc1CSc1nc2ccccc2c(=O)n1C | 1.5 (≈ 5.06 µM)
18 | COc1cc(OC)c(C=O)c(OC(=O)N2CCOCC2)c1 | > 44.3
19 | Nc1ncnc2c1ncn2Cc1ccccc1 | > 33.8
20 | CC1CCCC(NC(=O)c2ccc(COc3ccccc3)o2)C1C (stereo not drawn) | 2.2 (≈ 6.72 µM)
21 | COc1cccc(/C=C/C(=O)OCC(=O)NCCCc2ccccc2)c1OC | 5.6 (≈ 14.6 µM)
22 | CCOC(=O)Cc1csc(NC(=O)CCSc2ccccc2)n1 | 38.5 (≈ 110 µM)
23 | CC1CCCCN1CC(O)c1c[nH]c2ccccc12 (stereo not drawn) | > 38.8
24 | CCCOC(=O)CC1C(=O)NCCN1C(=O)OC(C)(C)C (stereo not drawn) | > 45.1
25 | COc1ccccc1N1C(=S)NC2CS(=O)(=O)CC21 (stereo not drawn) | > 44.8

Row | SMILES | solubility kinetic [µg/mL]
26 | CC(=NCCC1=CCCCC1)c1c(O)n(-c2ccccc2)c(=O)[nH]c1=O | 10 (≈ 28.3 µM)
27 | O=C(c1cccc(C(F)(F)F)c1)N1CCOc2ccccc21 | 37.5 (≈ 122 µM)
28 | Cc1cc(/C=C(\C#N)C(=O)N2CCCCC2)cc(C)c1O | > 42.7
29 | CC1(C)C(=O)Nc2ccccc2N1C(=O)COC(=O)c1cccnc1Cl | > 56.1
30 | COc1ccc(NC(=O)CN(C)C2CCCCC2)cc1Cl | 32.7 (≈ 105 µM)
31 | CCN(CC(=O)N1CCOCC1)S(=O)(=O)c1ccccc1 | > 46.9
32 | CCOc1ccc(-c2n[nH]c(=S)o2)cc1 | > 33.3
33 | CC1=N/C(=C/c2ccco2)C(=O)O1 | > 26.6
34 | O=C(Nc1cc([N+](=O)[O-])ccc1N1CCCC1)c1ccco1 | 40.9 (≈ 136 µM)
35 | COc1ccccc1NC(=O)/C(C#N)=C/c1ccncc1 | 36 (≈ 129 µM)
36 | O=C(O)CSCC(=O)NC1CCCc2ccccc21 (stereo not drawn) | > 41.9
37 | CNC(=S)Nc1cc(C(=O)N2CCCC2)ccc1N1CCCC1 | > 49.9
38 | COc1ccc(-c2c(=O)n(OC)c3ccccc3[n+]2[O-])cc1OC | > 49.2
39 | Cc1csc(NC(=O)c2ccc(OCC3CCCO3)cc2)n1 (stereo not drawn) | 21 (≈ 66 µM)
40 | O=C(O)CC1(CC(=O)Nc2ccccc2N2CCOCC2)CCCC1 | > 52
41 | COC(=O)Cn1c(=O)c(C)nc2ccccc21 | > 34.8
42 | CC(C)c1ccc(NC(=O)CSc2nc3ncccc3[nH]2)cc1 | 3.2 (≈ 9.8 µM)
43 | Br.Fc1ccccc1CNCC1CCCO1 (stereo not drawn) | 43.1
44 | COc1ccccc1NC(=O)Cc1cccc2ccccc12 | 2.1 (≈ 7.21 µM)
45 | Cn1ccsc1=NC(=O)c1ccc(S(=O)(=O)C(F)F)cc1 | 2.5 (≈ 7.52 µM)
46 | O=C(Nc1cccc(NC(=O)c2cccnc2)c1)c1ccccc1 | 21.9 (≈ 69 µM)
47 | COCCNC(=O)/C(C#N)=C/C=C/c1ccccc1 | 28.9 (≈ 113 µM)
48 | CCOc1ccc(C(=O)Nc2cccc3ncccc23)cc1Cl | 1.1 (≈ 3.37 µM)
49 | O=C(c1ccccc1)N1CCN(CCc2ccccn2)CC1 | > 44.3
50 | Cc1c(C(=O)O)sc2nc(/C=C/c3cccc(F)c3)[nH]c(=O)c12 | 41.3 (≈ 125 µM)

Row | SMILES | solubility kinetic [µg/mL]
51 | Cc1c(Cl)cccc1Nc1ncccc1C(=O)O | 34 (≈ 129 µM)
52 | Cc1cc(=O)oc2cc(OCC(=O)N3CCCC3)ccc12 | > 43.1
53 | COc1ccccc1NC(=O)/C(=C/c1ccncc1)NC(=O)c1ccccc1 | 22.2 (≈ 59.5 µM)
54 | Cc1ccc(NC(=O)C2CC(O)CN2C(=O)OCc2ccccc2)cc1C (stereo not drawn) | 48.8 (≈ 132 µM)
55 | CC(NC(=O)C(=O)NCC1CCCO1)c1ccccc1 (stereo not drawn) | > 41.5
56 | O=C(Nc1nccs1)C1CC(=O)N(c2ccc(Cl)cc2)C1 (stereo not drawn) | 4.1 (≈ 12.7 µM)
57 | O=C(Nc1ccccc1O)c1ccc(C(=O)c2ccccc2)o1 | < 0.7
58 | N#Cc1c(N2CCOCC2)nsc1-c1ccccc1 | 1.6 (≈ 5.9 µM)
59 | O=C(C1CCN(S(=O)(=O)c2ccc(Cl)cc2)CC1)N1CCCC1 | 35.9 (≈ 101 µM)
60 | CC(=O)N/C(=C\c1ccccc1)C(=O)OCC(=O)Nc1ccc(C)c(S(=O)(=O)N(C)C)c1 | 56.9 (≈ 124 µM)
61 | COc1ccc(C(=O)O/N=C(\N)Cc2cccs2)cc1OC | > 48.1
62 | Cc1cccc(C(=O)NC(=S)NC(C)c2ccccc2)c1 (stereo not drawn) | 1 (≈ 3.35 µM)
63 | O=S1(=O)CCN(Cc2ccc(F)cc2)CC1 | > 36.5
64 | O=C(CCN=C1NS(=O)(=O)c2ccccc21)NCc1ccccc1F | > 54.2
65 | O=[N+]([O-])c1cccc(C2(O)COc3ccccc3O2)c1 (stereo not drawn) | > 41
66 | Cc1ccc(C(=O)NCC(=O)N2CCCCCCC2)cc1 | 42.3 (≈ 147 µM)
67 | CC1Cc2ccccc2N1C(=O)COC(=O)c1ccc(Cl)nc1 (stereo not drawn) | 11.1 (≈ 33.6 µM)
68 | Cc1cc(NC(=O)CSc2nc3c(C)cccc3cc2C)no1 | < 0.2
69 | CCCNC(=S)N1CCC(NC(=O)Nc2ccc(C)cc2)CC1 | 4.9 (≈ 14.6 µM)
70 | OCCNCC12CC3CC(CC(C3)C1)C2 | 26.4 (≈ 126 µM)
71 | O=C1Nc2ccccc2C1(O)c1ccccc1O (stereo not drawn) | > 36.2
72 | Cc1cc(SCc2ccccc2C)nc(=O)[nH]1 | 30.7 (≈ 125 µM)
73 | CC(=O)c1cccc(NC(=O)N2CCOCC2)c1 | > 37.2
74 | CN1CCN(C(=O)c2ccc(-c3ccccc3)cc2)CC1 | > 42.1
75 | CC(C)[C@H](Nc1ncnc2c1oc1ccccc12)C(=O)O | > 42.8

Row | SMILES | solubility kinetic [µg/mL]
76 | CCn1c(=O)c2ccccc2n(Cc2cccc(C)c2)c1=O | 19.9 (≈ 67.6 µM)
77 | Cn1c(=O)c2ccccc2n2c(=S)[nH]nc12 | > 34.8
78 | CN1CCN(CC(O)COc2ccc(C(=O)O)cc2)CC1 (stereo not drawn) | 35.5 (≈ 121 µM)
79 | COc1ccc(NC(=O)N2CCc3cc(OC)c(OC)cc3C2)cc1 | 9.1 (≈ 26.6 µM)
80 | CCN(CC)CCn1c(=S)[nH]c2ccc(Br)cc2c1=O | > 53.4
81 | O=C(Nc1ccccn1)c1cc2ccccc2cc1O | 0.5 (≈ 1.89 µM)
82 | C=CCN1CCN(C(=O)c2oc3ccccc3c2C)CC1 | > 42.7
83 | COc1ccc(C(=O)NCCCn2ccnc2)cc1[N+](=O)[O-] | > 45.6
84 | O=Cc1cn(CCOc2ccccc2F)c2ccccc12 | 12.8 (≈ 45.2 µM)
85 | COc1ccc(S(=O)(=O)N2CCN(Cc3cccs3)CC2)cc1OC | 55.7 (≈ 146 µM)
86 | Cc1cccc(-c2nsc(SCC(=O)NCC3CCCO3)n2)c1 (stereo not drawn) | > 52.4
87 | O=C(CN1C(=O)COc2ccc(Cl)cc21)NC1CC1 | > 42.1
88 | NC(=O)C1CCN(C(=O)CCSCc2ccccc2)CC1 | > 46
89 | O=C(N/C(=C\c1ccccc1)C(=O)N1CCOCC1)c1ccco1 | > 49
90 | CC(C)(C)OC(=O)NCCc1n[nH]c(=S)o1 | > 36.8
91 | OC(CNCc1ccccc1Cl)C(F)(F)F (stereo not drawn) | 34.1 (≈ 134 µM)
92 | CC(C)Cc1ccc(/C=C/C(=O)N2CCOCC2)cc1 | > 41
93 | O=C(O)CSc1nc2ccc(C(=O)c3ccccc3)cc2[nH]1 | 44.4 (≈ 142 µM)
94 | Cn1c(=S)oc2ccccc21 | 14.9 (≈ 90.2 µM)
95 | CCOc1ccc(N=C(C)C2=C(O)c3ccccc3C2=O)cc1 | < 0.7
96 | COc1ccc(S(=O)(=O)N2c3ccc(F)cc3CCC2C)cc1 (stereo not drawn) | 3.2 (≈ 9.54 µM)
97 | CN(C)C(=O)Oc1noc2cc(Cl)ccc12 | 27.9 (≈ 116 µM)
98 | N/C(=N\OC(=O)Cc1ccccc1[N+](=O)[O-])c1ccccn1 | 42.3 (≈ 141 µM)
99 | Cc1cc(C)c(N=Cc2c(O)c3ccccc3oc2=O)c(C)c1 | < 0.7
100 | Cc1ccc2nc(C)cc(C(=O)NC3CCCCCC3)c2c1 | 3.6 (≈ 12.1 µM)

Row | SMILES | solubility kinetic [µg/mL]
101 | Cc1nn(C)cc1S(=O)(=O)Nc1ccc(F)c(F)c1 | > 43.1
102 | Cc1cccc(NC(=O)C2CCN(C(=O)c3ccco3)CC2)c1C | > 49
103 | Cc1c(C)n(CCc2ccccc2)c2ncnc(NCCCO)c12 | 48.3 (≈ 149 µM)
104 | COC(=O)c1ccc(S(=O)(=O)NCCc2ccccc2OC)n1C | 23 (≈ 65.3 µM)
105 | Cc1cc(NC(=O)c2sc3ccccc3c2O)no1 | > 41.1
106 | O=C1CN(C(=O)COC(=O)CCc2ccccc2O)c2ccccc2N1 | > 53.2
107 | Cc1nc(N2CCCCC2)c(C#N)c(C)c1[N+](=O)[O-] | 3.8 (≈ 14.6 µM)
108 | COc1cccc(C(NC(C)=O)c2ccc3cccnc3c2O)c1 (stereo not drawn) | 44.4 (≈ 138 µM)
109 | CC1CN(C(=O)COC(=O)c2ccc(O)cc2)CC(C)O1 (stereo not drawn) | 43.8 (≈ 149 µM)
110 | COc1ccc(-n2c(C)nc3ccccc3c2=O)c([N+](=O)[O-])c1 | 39.4 (≈ 127 µM)
111 | CC(=O)Nc1ccc(C(=O)Nc2ccncc2)cc1 | 31.6 (≈ 124 µM)
112 | O=c1oc(-c2cccc([N+](=O)[O-])c2)nc2ccccc12 | 3.2 (≈ 11.9 µM)
113 | Cn1c(SCc2ccccc2Cl)nc2c1c(=O)[nH]c(=O)n2C | 0.4 (≈ 1.19 µM)
114 | O=C1C2C3C=CC(CC3)C2C(=O)N1c1ccccc1[N+](=O)[O-] (stereo not drawn) | 14.5 (≈ 48.6 µM)
115 | O=C(NCCc1c[nH]c2ccccc12)/C(=C/c1cccnc1)NC(=O)c1ccco1 | > 60.1
116 | Cc1noc(-c2ccccc2)c1NC(=O)Nc1ccc(Cl)cc1 | 3.1 (≈ 9.46 µM)
117 | CCOC(=O)Cn1cc(C#N)c(=O)[nH]c1=O | > 33.5
118 | Nc1ccc(C(=O)O)cc1[N+](=O)[O-] | > 27.3
119 | Cc1ccc(NC(=O)C(=O)NCc2ccncc2)cc1 | 29.6 (≈ 110 µM)
120 | COc1ccc(C(=O)NC23CC4CC(CC(C4)C2)C3)cc1 | 1 (≈ 3.5 µM)
121 | O=C(Nc1cccc(S(=O)(=O)NC2=NCCC2)c1)c1ccccc1 | > 51.5
122 | COc1ccc(C(=O)O)cc1S(=O)(=O)NC(C)(C)C | > 43.1
123 | Cc1sc2ncnc(NCC(O)c3ccccc3)c2c1C (stereo not drawn) | 6.6 (≈ 22 µM)
